Results: publication PMC9860859, “Design, Development, and Optimisation of Smart Linker Chemistry for Targeted Colonic Delivery—In Vitro Evaluation” (Pharmaceutics, 2023)
Where “and” joins values, the source holds several entries; their conditions need not be identical. Identical values can stand only once. Entries after “also recorded” stand apart in the source; their conditions may differ. Each block holds one molecule with its values, some of them ahead of it.

What was measured:
[1] = cited from earlier work
[2] = In vitro release assay of probes 13–17 by HPLC in buffers simulating the GIT
Protocol: (§1) Test solutions for probes 13–17 were prepared at 25 µM in a 1:1 mixture of ethanol and the respective buffer. Samples were incubated at 37 °C, then analysed by HPLC using an Agilent 1260 Infinity system, with conditions as follows: Agilent ZORBAX Eclipse Plus C18 Rapid Resolution column, 3.5 μm (4.6 × 100 mm), 95 Å pore size; column temperature, 35 °C; injection volume, 2 μL; flow rate, 1.0 mL min^−1; gradient elution from 5–100% solvent B (0.1% TFA in MeCN) in solvent A (0.1% TFA in ultrapure water) over 9 min, then hold for 1 min at 100% B; UV detection at two wavelengths (254 and 214 nm). The total run time was 10 min, and the retention times of the model compounds CTG and DCM-OH were 4.28 and 6.16 min, respectively. The retention times of probes 13–17 were 4.41, 4.53, 4.58, 5.97, and 6.04 min, respectively. Calibration curves of free fluorophore were constructed at pH values of 1.2, 5.0, 6.5, and 7.5 over the concentration range of 10–100 µM. A concentration of 25 μM was selected to run in the assay as it gave a good instrument response at the selected wavelength. The data at each pH value was fitted by linear regression, yielding equations of the form: y = ax ± b, where y is the peak area and x is the corresponding concentration in µM. Furthermore, the correlation coefficient (R^2) was ≥0.999 in each case, confirming the linearity of the method used under the specified conditions.
(§2) Release assays for probes 13–17 were performed in vitro using pH and temperature conditions chosen to simulate the GIT, with analysis by HPLC. We used KCl/HCl buffer (pH 1.2) and acetate buffer (pH 5.0) to simulate the pH of the stomach and the duodenum, respectively, while PBS (pH 7.5) and phosphate buffer (pH 6.5) were used to mimic the pH of the lower small intestine and the colon. The compounds were dissolved in 1:1 ethanol/buffer and incubated at 37 °C. Aliquots were taken at different time points and analysed by HPLC and LC/MS, as described in Section 2.2. […] Thus, the aforementioned compounds were incubated at pH 1.2 for 5 h to test their stability under conditions simulating the stomach. […] Then, the stability of the probes was tested in simulated duodenum conditions for 30–40 min, reflecting the reported transit time in the duodenum [26].

[3] = parameters: method as in PMID 33979164; conditions: cited from earlier work
[4] = parameters: method as in PMID 33979164; conditions: cited from earlier work; remark: listed apart in the source
[5] = parameters: method as in PMID 33979164; conditions: cited from earlier work; remark: listed apart in the source
[6] = In vitro release of Msl from Msl prodrugs by HPLC in buffers simulating the GIT; assay type: physicochemical; conditions: pH 7.5, 37 °C, over 2 h, water/buffer 1:1, small intestine-like
[7] = as above; assay type: physicochemical; conditions: for release of Msl: colon-like conditions (pH 6.5); for Msl release / prodrug stability: 37 °C; for prodrug remained intact: simulated upper GIT conditions
Protocol: We chose Msl as a starting point for putting our prodrug concept into practice. […] Therefore, a new methodology was developed in which prodrug 21 was incubated in 1:1 ethanol/buffer and the HPLC analysis was run with UV detection at 310 nm, as detailed in the Supplementary Materials.
Then, the same compound was incubated at pH 7.5 and 6.5 to measure its stability under conditions mimicking the small intestine and colon, respectively. […] We believed that the formaldehyde released after cyclisation of the linker had initiated the side-reaction according to the mechanism described in detail in Supplementary Materials and supported by literature (Scheme S3).

[8] = parameters: method as in PMID 2219958; conditions: cited from earlier work
[9] = buffer, pH 5
Protocol: as §1, §2

[10] = Fluorometric assay of the stability of probes 13 and 16 at pH 7.5 and 6.5; assay type: physicochemical
From the text: page 2: 1. Stability of probe 13 at pH 7.5 and 6.5 using the spectrofluorometric assay. Principal: CTG's fluorescence is reversibly quenched or shifted to another wavelength when the phenol group is conjugated to the pH-sensitive linkers. Upon cyclization of the linker and the release of the free phenol, the fluorescence will be restored (on-mode). Fluorescence can be measured to follow the release of the payload, which is the fluorophore itself. The optical properties of the free fluorophore were measured in 50% DMSO/buffer at pHs 7.5, and 6.5. Since the fluorescence- based assay depends on the difference in fluorescence properties between the free fluorophore and its conjugates, the excitation wavelength must be carefully chosen. […] Secondly, the wavelength that gave a reasonable absorbance rather than maximum absorbance should be chosen to avoid exceeding the detector limits. Finally, a long distance between the excitation and emission wavelengths is preferable to minimize the background fluorescence. Accordingly, the in vitro tests were conducted by measuring the fluorescence at 555 nm after excitation of the probes at 500 nm, as this wavelength achieved the previous requirements. […] The microplate was incubated at 37 °C, and the fluorescence (em: 555 nm, ex: 500 nm) was recorded at every time point until the full release of CTG was obtained. […]

[11] = pH 1.2 (KCl/HCl buffer/EtOH 1:1), 5 h, 37 °C, 25 µM, stomach-like

Molecule: Cc1cc(C(=O)O)ccc1-c1c2ccc(=O)cc-2oc2cc(O)ccc12 [CTG, 4-Carboxy-2-methyl Tokyo Green]
- pKa [1]: 4.33

Molecule: N#CC(C#N)=C1C=C(/C=C/c2ccc(O)cc2)Oc2ccccc21 [DCM-OH, Dicyanomethylene-4H-pyran dye]
- pKa [1]: 7.21

Molecule: Nc1ccc(O)c(C(=O)O)c1 [Msl, Mesalamine]
- pKa of aromatic amino group (–NH3+) [1]: 6
- pKa of carboxylic group (–COOH) [1]: 3
- pKa of phenolic group (–OH) [1]: 13.9

- half-life at 25 µM ([2]; PBS, pH 7.5): 2.4 ± 0.37 h
- half-life at 25 µM ([2]; acetate buffer, pH 5): > 0.583 h
- CTG payload released (sustained release) ([2]; colon-like conditions (pH 6.5), over 38 h): > 90%
- half-life at 25 µM ([2]; phosphate buffer, pH 6.5): 13.2 ± 0.54 h
- CTG payload protected from being released ([2]; small intestine-like conditions, pH 7.5, 2 h): 60%
Molecule: C#CCCCNCCCCOC(=O)OCOc1ccc2c(-c3ccc(C(=O)O)cc3C)c3ccc(=O)cc-3oc2c1.Cl [Probe 15, N-(4-(((((9-(4-Carboxy-2-methylphenyl)-3-oxo-3H-xanthen-6yl)oxy)methoxy)carbonyl)oxy)butyl)pent-4-yn-1-aminium chloride]
- fluorophore release / stability under stomach-like conditions ([2]; pH 1.2, 37 °C): excellent stability; also recorded: no detectable fluorophore release; also recorded: stable
- fluorophore release / stability under duodenum-like conditions ([2]; pH 5.0, 37 °C): excellent stability; also recorded: no detectable fluorophore release; also recorded: stable

- half-life at 25 µM ([2]; PBS, pH 7.5): 0.113 ± 0.012 h
- half-life at 25 µM ([2]; acetate buffer, pH 5): 16.4 ± 1.52 h
- fluorophore release [2, 11]: 0.5%
- free fluorophore detected ([2]; pH 5.0 (acetate buffer/EtOH 1:1), at 35 min, 37 °C): 7%
- time to full fluorophore release ([2]; pH 6.5, mimicking the colon, 37 °C): 170 min
- time to achieve complete fluorophore release ([2]; pH 7.5, small intestine-like, 37 °C): 40 min
- half-life at 25 µM ([2]; phosphate buffer, pH 6.5): 0.467 ± 0.0257 h
Molecule: C#CCCCNCCCOC(=O)OCOc1ccc(/C=C/C2=CC(=C(C#N)C#N)c3ccccc3O2)cc1.Cl [Probe 17, (E)-N-(3-((((4-(2-(4-(Dicyanomethylene)-4H-chromen-2-yl)vinyl)phenoxy)methoxy)carbonyl)oxy)propyl)pent-4-yn-1-aminium chloride]

Molecule: CNCCCOC(=O)OCOc1c(-c2ccc(Oc3ccc(OC(F)(F)F)cc3)cc2F)c(C)nc2cc(OC)c(Cl)cc12 [Prodrug 2]
- stability under stomach-like conditions [3]: stable
- oral bioavailability compared with the parent drug [4]: enhanced oral bioavailability
- aqueous solubility compared with the parent drug [5]: improved aqueous solubility

Molecule: C#CCCCNCCCCOC(=O)OCOc1ccc(N)cc1C(=O)O.Cc1ccc(S(=O)(=O)O)cc1.Cc1ccc(S(=O)(=O)O)cc1 [Prodrug 21, 3-Carboxy-4-((((4-(pent-4-yn-1-ylammonio)butoxy)carbonyl)oxy)methoxy)benzeneaminium-di(4-methylbenzenesulfonate)]
- Msl payload released [6]: 20%
- release of Msl ([7]; after 24 h): 36%
- release of Msl ([7]; after 48 h): 61–68% and 61%
- release of Msl ([7]; after 6 d): 93%
- Msl release / prodrug stability ([7]; pH 1.2, 5 h, stomach-like): no Msl was released
- Msl release / prodrug stability ([7]; pH 5.0, 35 min, duodenum-like): no Msl was released
- prodrug remained intact [7]: 77–80%

- Msl payload released [6]: 23.5%
- release of Msl ([7]; after 48 h): 61–68% and 68%
- Msl release / prodrug stability ([7]; pH 1.2, 5 h, stomach-like): fully intact
- Msl release / prodrug stability ([7]; pH 5.0, 35 min, duodenum-like): fully intact
- prodrug remained intact [7]: 77–80%
Molecule: C#CCCCNCCCOC(=O)OCOc1ccc(N)cc1C(=O)O.Cc1ccc(S(=O)(=O)O)cc1.Cc1ccc(S(=O)(=O)O)cc1 [Prodrug 22, 3-Carboxy-4-((((3-(pent-4-yn-1-ylammonio)propoxy)carbonyl)oxy)methoxy)benzeneaminium-di(4-methylbenzenesulfonate)]

Molecule: CCOC(=O)OC(C)OC1=C(C(=O)Nc2ccccn2)N(C)S(=O)(=O)c2ccccc21 (centres unmarked) [ampiroxicam]
- t½ ([8]; pH 1): ≥ 50 h
- t½ (hydrolysis) ([8]; pH 6.0–8.5): ≥ 8 h

- fluorophore release [2, 11]: 3%
- fluorophore release ([2]; pH 5.0 (acetate buffer/EtOH 1:1), 30–40 min, 37 °C, duodenum-like): ~ 66%
- half-life [9]: 0.343 ± 0.0035 h
- time to conversion to the free fluorophore ([10]; at both pH 6.5 and pH 7.5, buffer/DMSO 1:1, 37 °C): ≤ 3 min
- fluorophore release in fluorometric assay ([10]; pH 7.5 and 6.5, buffer/DMSO 1:1, 37 °C): released immediately
Molecule: (E)-N-(3-((((4-(2-(4-(dicyanomethylene)-4H-chromen-2-yl)vinyl)phenoxy)methoxy)carbonyl)oxy)propyl)pent-4-yn-1-aminium chloride [Probe 16]
